35 molecules from patent US20260258050A1, “IMMUNOMODULATOR” (HITGEN INC., priority 2023, published 2026) can be followed below.

In the experiment the target is T1, Human IL-17A (Homo sapiens, UniProt Q16552).
T1 sequence (Q16552 20-155 limits assumed): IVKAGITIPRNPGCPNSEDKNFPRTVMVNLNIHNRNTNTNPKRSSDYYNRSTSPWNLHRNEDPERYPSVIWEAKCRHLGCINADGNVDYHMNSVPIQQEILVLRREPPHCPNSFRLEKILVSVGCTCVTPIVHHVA
Nature of the experiment: IL-17A enzyme-linked immunosorbent assay (competitive ELISA, IL-17A/IL-17Ra receptor-ligand binding). Particulars: human IL-17A coated plate, human IL-17Ra, read-out: IC50, inhibitory activity of compounds on human IL-17A. Further details: purchased Sino Biological Inc. 12047-H07B. Here is the method: Experimental Example 1 IL-17A Enzyme-Linked Immunosorbent Assay (ELISA)
The inhibitory effects of human IL-17A inhibitors on receptor-ligand binding were quantitatively determined by a competitive enzyme-linked immunosorbent assay (ELISA). The ELISA was performed through the following steps.
Human IL-17A (Sino Biological Inc., Cat #12047-H07B) was diluted with coating buffer (50 mM phosphate-buffered saline (PBS), pH 7.4) to give an IL-17A concentration of 0.2 μg/ml. 100 μL of the resulting solution was added to each well of a 96-well plate, and the plate was incubated at 37° C. for 30 min. In a blank group, 100 100 μL of the coating buffer was added instead of the IL-17A solution.
The plate was washed four times with 10 mM phosphate-buffered saline containing 0.05% Tween-20 (PBST, pH 7.4). 200 μL of PBST was used per well for each wash. After the final wash, the plate was tapped dry on absorbent paper.
Fresh 5% (w/v) skim milk solution was prepared before the experiment. For example, 5 g of skim milk powder (Bio-Rad, 170-6404) was completely dissolved in 100 mL of 10 mM PBST. 200 μL of the 5% (w/v) skim milk solution was added to each well, and the plate was incubated on a shaker at 25° C. for 30 min.
(S4) Preparation of 100× to-be-Tested Compound Solutions
During step (S3), the to-be-tested compound solutions were prepared, respectively. Each powdered compound was dissolved in dimethyl sulfoxide (DMSO) to reach a storage concentration of 10 mM. The to-be-tested compound solutions were then serially diluted four-fold with DMSO to obtain nine storage concentrations ranging from […].
(S6) Pre-incubation of IL-17A with to-be-tested compound solutions
89 μL of PBST and 1 μL of each of the to-be-tested compound solutions were added to each well and mixed. The plate was pre-incubated at 25° C. for 10 min. In the blank group and the control group, 1 μL of DMSO was added instead of the to-be-tested compound solutions.
(S7) Incubation with Human Interleukin-17 Receptor a (IL-17Ra)
10 μL of 16 nM human IL-17Ra (Sino Biological Inc., Cat #10895-H03H) was added, followed by incubation on a shaker at 25° C. for 30 min. The receptor solution was prepared in 10 mM PBST.
(S9) Incubation with Horseradish Peroxidase-Conjugated Antibody
100 μL of mouse anti-Fc tag horseradish peroxidase (HRP)-conjugated antibody (Sino Biological Inc., Cat #10702-MM01T-H) was added to each well. The plate was incubated on a shaker at 25° C. for 30 min. The antibody was diluted with 5% (w/v) skim milk solution at 1:5,000 (v/v).
100 μL of 3,3′,5,5′-tetramethylbenzidine (TMB) substrate solution (BD, Cat #555214) was added to each well. Substrate A and substrate B were freshly mixed at a volume ratio of 1:1 before use. The plate was incubated in the dark at 25° C. for 5-15 min.
(S12) Termination and Detection
The color reaction was terminated by addition of 2.5 M hydrochloric acid (HCl). Absorbance was measured at 450 nm using a BMG PHERStar microplate reader.
(S13) Calculation of Half-Maximal Inhibitory Concentration (IC50)
The relative percent residual activity at each compound concentration was calculated according to Equation 1. The IC50 value of each test compound was then calculated in GraphPad 6 using the equation for log(inhibitor) versus normalized response with variable slope, as shown in Equation 2.
relative percent residual activity (%)=[(absorbance of sample−absorbance of blank group)/(absorbance of control group−absorbance of blank group)]%. Equation 1: […]
The compounds prepared in the above examples were tested for IL-17A inhibitory activity according to the above method.
A general note: In an ELISA, binding on a coated surface is turned into a signal by an enzyme label.

What is called IC50 is the concentration at which inhibition is half-maximal. `Cc1[nH]nc2c1-c1cc(F)c(NC(=O)[C@@H](NC(=O)c3ccnn3CCCN(C)C)C(C3CC3)C3CC3)cc1COCC2` [compound 85]: the IC50 was in the range of 50 to 150 nM. Take `Cc1[nH]nc2c1-c1cc(F)c(NC(=O)[C@@H](NC(=O)c3ccnn3CC3(C(F)(F)F)CC3)C(C3CC3)C3CC3)cc1COCC2` [compound 91]: the IC50 was 50 to 150 nM. With `Cc1[nH]nc2c1-c1cc(F)c(NC(=O)[C@@H](NC(=O)c3ccnn3CCCN3CCN(C)CC3)C(C3CC3)C3CC3)cc1COCC2` [compound 93] the figure was 50 to 150 nM. In the case of `Cc1[nH]nc2c1-c1cc(F)c(NC(=O)[C@@H](NC(=O)c3ccnn3C(CF)CF)C(C3CC3)C3CC3)cc1COCC2` [compound 95], the IC50 was ≤ 50 nM. As to `Cc1[nH]nc2c1-c1cc(F)c(NC(=O)[C@@H](NC(=O)c3ccnn3CCOC(F)F)C(C3CC3)C3CC3)cc1COCC2` [compound 107], the 50% inhibitory concentration (IC50) is ≤ 50 nM.

`Cc1[nH]nc2c1-c1cc(F)c(NC(=O)[C@@H](NC(=O)c3ccnc(CC(F)(F)F)c3)C(C3CC3)C3CC3)cc1COCC2` [compound 109]: the IC50 fell in the range of 50 to 150 nM.

Turning to `Cc1[nH]nc2c1-c1cc(F)c(NC(=O)[C@@H](NC(=O)c3ccnn3C3CSC3)C(C3CC3)C3CC3)cc1COCC2` [compound 112], the IC50 is ≤ 50 nM. With `COC(=O)N[C@H](C(=O)Nc1cc2c(cc1F)-c1c(n[nH]c1C)CCOC2)C(C1CC1)C1CC1` [compound 121] the figure was 50 to 150 nM; with `Cc1[nH]nc2c1-c1cc(F)c(NC(=O)[C@@H](NC(=O)C3(F)CC3)C(C3CC3)C3CC3)cc1COCC2` [compound 122], 50 to 150 nM. Turning to `Cc1[nH]nc2c1-c1cnc(NC(=O)[C@@H](NC(=O)c3ccnn3C(C)C)C(C3CC3)C3CC3)c(F)c1COCC2` [compound 128], the IC50 was ≤ 50 nM. With `Cc1[nH]nc2c1-c1cc(F)c(NC(=O)[C@@H](NC(=O)c3ccnn3C(C)C)C(C3CC3)C3CC3)cc1C/C=C\C2` [compound 129] the figure was ≤ 50 nM; with `Cc1[nH]nc2c1-c1cc(F)c(NC(=O)[C@@H](NC(=O)c3ccnn3C3CC3)C(C3CC3)C3CC3)cc1CN(C)C(=O)C2` [compound 135], ≤ 50 nM.

For the molecule `COCCN1Cc2cc(NC(=O)[C@@H](NC(=O)c3ccnn3[C@@H](C)CO)C(C3CC3)C3CC3)c(F)cc2-c2c(n[nH]c2C)CC1=O` [compound 140], the IC50 is ≤ 50 nM. `COCCN1Cc2cc(NC(=O)[C@@H](NC(=O)c3nonc3C)C(C3CC3)C3CC3)c(F)cc2-c2c(n[nH]c2C)CC1=O` [compound 141]: the IC50 is ≤ 50 nM. Take `CCn1nccc1C(=O)N[C@H](C(=O)Nc1cc2c(cc1F)-c1c(n[nH]c1C)CCN(C)C2)C(C1CC1)C1CC1` [compound 155]: the IC50 fell in the range of 50 to 150 nM. With `Cc1[nH]nc2c1-c1cc(F)c(NC(=O)[C@@H](NC(=O)c3ccnn3C(C)C)C(C3CC3)C3CC3)cc1CN(C1CCC1)CC2` [compound 177] the figure was ≤ 50 nM. To `Cc1[nH]nc2c1-c1cc(F)c(NC(=O)[C@@H](NC(=O)c3ccnn3C(C)C)C(C3CC3)C3CC3)cc1CN(CC#N)CC2` [compound 179] belongs ≤ 50 nM; to `Cc1[nH]nc2c1-c1cnc(NC(=O)[C@@H](NC(=O)c3ccnn3C(C)C)C(C3CC3)C3CC3)cc1CN(C1CC(F)(F)C1)CC2` [compound 203], ≤ 50 nM; to `Cc1[nH]nc2c1-c1cnc(NC(=O)[C@@H](NC(=O)c3ccnn3C(C)C)C(C3CC3)C3CC3)cc1CN(C(C)(C)C(F)(F)F)C(=O)C2` [compound 206], ≤ 50 nM.

Consider `Cc1[nH]nc2c1-c1cc(F)c(NC(=O)[C@@H](NC(=O)c3ccnn3C(C)C)C(C3CC3)C3CC3)cc1CN(C(C)(C)C(F)(F)F)C(=O)C2` [compound 207], for which the IC50 is ≤ 50 nM. To `Cc1[nH]nc2c1-c1cnc(NC(=O)[C@@H](NC(=O)c3ccnn3C(C)C)C(C3CC3)C3CC3)cc1CN(C1(C(F)(F)F)CC1)C(=O)C2` [compound 208] belongs ≤ 50 nM; to `Cc1[nH]nc2c1-c1cc(F)c(NC(=O)[C@@H](NC(=O)c3ccnn3C(C)C)C(C3CC3)C3CC3)cc1CN(C1(C(F)(F)F)CC1)C(=O)C2` [compound 209], ≤ 50 nM; to `Cc1[nH]nc2c1-c1cnc(NC(=O)[C@@H](NC(=O)c3ccnn3C(C)C)C(C3CC3)C3CC3)cc1CN(C(C)(C)C(F)(F)F)CC2` [compound 210], ≤ 50 nM. To `Cc1[nH]nc2c1-c1cc(F)c(NC(=O)[C@@H](NC(=O)c3ccnn3C(C)C)C(C3CC3)C3CC3)cc1CN(C(C)(C)C(F)(F)F)CC2` [compound 211] belongs ≤ 50 nM; to `Cc1[nH]nc2c1-c1cnc(NC(=O)[C@@H](NC(=O)c3ccnn3C(C)C)C(C3CC3)C3CC3)cc1CN(C1(C(F)(F)F)CC1)CC2` [compound 212], ≤ 50 nM; to `Cc1[nH]nc2c1-c1cc(F)c(NC(=O)[C@@H](NC(=O)c3ccnn3C(C)C)C(C3CC3)C3CC3)cc1CN(C1(C(F)(F)F)CC1)CC2` [compound 213], ≤ 50 nM.

Turning to `Cc1[nH]nc2c1-c1cnc(NC(=O)[C@@H](NC(=O)c3cnnn3C(C)C)C(C3CC3)C3CC3)cc1CN(C1CC1)CC2` [compound 220], the IC50 is ≤ 50 nM. To `Cc1[nH]nc2c1-c1cnc(NC(=O)[C@@H](NC(=O)/C(F)=C\C3CC3)C(C3CC3)C3CC3)cc1CN(C1CC1)CC2` [compound 221] belongs ≤ 50 nM.

For `Cc1[nH]nc2c1-c1cnc(NC(=O)[C@@H](NC(=O)/C(F)=C\C(C)C)C(C3CC3)C3CC3)cc1CN(C1CC1)CC2` [compound 222], the IC50 is ≤ 50 nM. With `CC(C)=C(F)C(=O)N[C@H](C(=O)Nc1cc2c(cn1)-c1c(n[nH]c1C)CCN(C1CC1)C2)C(C1CC1)C1CC1` [compound 223], the IC50 is ≤ 50 nM.

On to `C=C(F)C(=O)N[C@H](C(=O)Nc1cc2c(cn1)-c1c(n[nH]c1C)CCN(C1CC1)C2)C(C1CC1)C1CC1` [compound 224], for which the IC50 was ≤ 50 nM.

For `Cc1[nH]nc2c1-c1cc(F)c(NC(=O)[C@@H](NC(=O)c3cccc(-c4ccn[nH]4)c3)C(C3CC3)C3CC3)cc1COCC2` [compound 228], the IC50 was ≤ 50 nM. `Cc1[nH]nc2c1-c1cc(F)c(NC(=O)[C@@H](NC(=O)c3cnnn3C(C)C)C(C3CC3)C3CC3)cc1COCC2` [compound 231]: the IC50 was ≤ 50 nM. `Cc1[nH]nc2c1-c1cnc(NC(=O)[C@@H](NC(=O)c3cnnn3C(C)C)C(C3CC3)C3CC3)cc1COCC2` [compound 243]: the concentration for half-maximal inhibition (IC50) was ≤ 50 nM.

With `Cc1[nH]nc2c1-c1cnc(NC(=O)[C@@H](NC(=O)OC3CCC3)C(C3CC3)C3CC3)cc1COCC2` [compound 247], the IC50 fell in the range of 50 to 150 nM.
